Assays:
barnyardgrass = experiment: Test B pre-/postemergence herbicide test; type: in vivo, Echinochloa crus-galli
How it was run: (§1)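 Response was scored visually 13 to 15 days after treatment against untreated greenhouse controls, 0 meaning no effect and 100 complete control. Formulations (solvent mixture plus surfactant) went onto soil after planting, onto foliage of 1- to 4-leaf plants, and onto 2-leaf plants in a flooded paddy set including rice and barnyardgrass.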

Surinam grass = experiment: Test B pre-/postemergence herbicide test; type: in vivo, Urochloa decumbens
How it was run: (§2)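 Pre: seeds sown, then sprayed. Post: 1–4-leaf plants (2–18 cm) sprayed at the same time. Paddy: flooded, treated at 2-leaf stage. Formulation: non-phytotoxic solvent with surfactant. Greenhouse 13–15 days; visual 0–100 score relative to controls.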

cocklebur = experiment: Test B pre-/postemergence herbicide test; type: in vivo, Xanthium strumarium
How it was run: as §1

corn = experiment: Test B pre-/postemergence herbicide test; type: in vivo, Zea mays
How it was run: as §2

large crabgrass = experiment: Test B pre-/postemergence herbicide test; type: in vivo, Digitaria sanguinalis
How it was run: as §2

giant foxtail = experiment: Test B pre-/postemergence herbicide test; type: in vivo, Setaria faberi
How it was run: as §2

lambsquarters = experiment: Test B pre-/postemergence herbicide test; type: in vivo, Chenopodium album
How it was run: as §2

pigweed = experiment: Test B pre-/postemergence herbicide test; type: in vivo, Amaranthus retroflexus
How it was run: as §2

velvetleaf = experiment: Test B pre-/postemergence herbicide test; type: in vivo, Abutilon theophrasti
How it was run: as §2

blackgrass = experiment: Test B postemergence herbicide test; type: in vivo, Alopecurus myosuroides
How it was run: (§3)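 Visual control ratings, 0–100 versus untreated controls, taken after 13 to 15 days in the greenhouse. Blackgrass received a postemergence spray at the 1- to 4-leaf stage (2–18 cm); ducksalad, umbrella sedge and barnyardgrass were flooded-paddy treated at 2 leaves.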

wheat = experiment: Test B postemergence herbicide test; type: in vivo, Triticum aestivum; design: key to Wheat plant response rating: 0 = no effect, 100 = complete control; settings: for Wheat plant response rating: postemergence
How it was run: (§4)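 Formulated test chemicals went onto postemergence plants measuring 2 to 18 cm, at one to four leaves. For the paddy assay, species had reached two leaves. Scoring took place 13–15 days later by eye, relative to untreated plants, using 0 for no effect up to 100 for full control.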

wild oat = experiment: Test B postemergence herbicide test; type: in vivo, Avena fatua
How it was run: as §4

rice = experiment: Test B flooded paddy test; type: in vivo, Oryza sativa; settings: 1000 g ai/ha, scale 0 to 100 (0 no effect, 100 complete control)
How it was run: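 Plants grow to 1- to 4-leaf stage (2–18 cm) for postemergence spraying, or to 2-leaf stage for the paddy test. Formulated compound is applied. Greenhouse holding lasts 13–15 days. Response is scored visually relative to controls, 0 no effect to 100 complete control; a dash means no result.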

[1] = system: small flower umbrella sedge; experiment: Test B flooded paddy test; type: in vivo, Cyperus difformis; settings: 1000 g ai/ha, scale 0 to 100 (0 no effect, 100 complete control)
How it was run: as §3

ducksalad = experiment: Test B flooded paddy test; type: in vivo, Heteranthera limosa; settings: 1000 g ai/ha, scale 0 to 100 (0 no effect, 100 complete control)
How it was run: as §3

[2] = 500 g ai/ha, visual rating 0-100, 0 no effect, 100 complete control, preemergence
[3] = postemergence, 125 g ai/ha, visual rating, scale 0 (no effect) to 100 (complete control)
[4] = postemergence, 500 g ai/ha, visual rating, scale 0 (no effect) to 100 (complete control)
[5] = preemergence, 125 g ai/ha, 0 to 100 scale, 0 is no effect, 100 is complete control
[6] = Postemergence, 125 g ai/ha, scale 0 (no effect) to 100 (complete control)
[7] = Postemergence, 500 g ai/ha, visual rating after 13 to 15 days, scale 0 (no effect) to 100 (complete control)
[8] = Preemergence, 500 g ai/ha, scale 0 to 100
[9] = 125 g ai/ha, 0 = no effect, 100 = complete control, preemergence
[10] = 500 g ai/ha, visual rating, 0 = no effect, 100 = complete control, preemergence
[11] = postemergence, 500 g ai/ha, scale 0 to 100, 0 is no effect, 100 is complete control

In the case of `CCNC(=O)c1cc(C)nc(NC(=O)c2cc(C(C)(C)C)nn2CC)c1` [Compound 149], the “Plant response rating, Barnyardgrass” value (barnyardgrass; [2]) is reported as 90, the “Barnyardgrass plant response rating” value (barnyardgrass; [3]) is reported as 0 and the “Barnyardgrass plant response rating” value (barnyardgrass; [4]) is reported as 30. For the same compound, the “Plant response rating, Barnyardgrass” value (barnyardgrass; [5]) was 80, the “Plant response rating, Surinam Grass” value (Surinam grass; [2]) was 80 and the “Surinam Grass plant response rating” value (Surinam grass; [3]) was 10. For the same compound, the “Surinam Grass plant response rating” value (Surinam grass; [4]) was 20, the “Plant response rating, Surinam Grass” value (Surinam grass; [5]) was 40 and the “Plant response rating, Cocklebur” value (cocklebur; [2]) was 0. For the same compound, the “Cocklebur plant response rating” value (cocklebur; [3]) was 20, the “Cocklebur plant response rating” value (cocklebur; [4]) was 100 and the “Plant response rating, Cocklebur” value (cocklebur; [5]) was 0. The “Plant response rating, Corn” value (corn; [2]) was 50, the “Corn plant response rating” value (corn; [3]) was 10 and the “Corn plant response rating” value (corn; [4]) was 30. For the same compound, the “Plant response rating, Corn” value (corn; [5]) was 10, the “Plant response rating, Crabgrass, Large” value (large crabgrass; [2]) was 100 and the “Crabgrass, Large plant response rating” value (large crabgrass; [3]) was 10. The “Crabgrass, Large plant response rating” value (large crabgrass; [4]) was 30, the “Plant response rating, Crabgrass, Large” value (large crabgrass; [5]) was 90 and the “Plant response rating, Foxtail, Giant” value (giant foxtail; [2]) was 100. For the same compound, the “Foxtail, Giant plant response rating” value (giant foxtail; [3]) was 10, the “Foxtail, Giant plant response rating” value (giant foxtail; [4]) was 10 and the “Plant response rating, Foxtail, Giant” value (giant foxtail; [5]) was 60. The “Plant response rating, Lambsquarters” value (lambsquarters; [2]) was 100, the “Lambsquarters plant response rating” value (lambsquarters; [3]) was 20 and the “Lambsquarters plant response rating” value (lambsquarters; [4]) was 60. For the same compound, the “Plant response rating, Lambsquarters” value (lambsquarters; [5]) was 60, the “Plant response rating, Pigweed” value (pigweed; [2]) was 100 and the “Pigweed plant response rating” value (pigweed; [3]) was 50. For the same compound, the “Pigweed plant response rating” value (pigweed; [4]) was 70, the “Plant response rating, Pigweed” value (pigweed; [5]) was 100 and the “Plant response rating, Velvetleaf” value (velvetleaf; [2]) was 40. For the same compound, the “Velvetleaf plant response rating” value (velvetleaf; [3]) was 10, the “Velvetleaf plant response rating” value (velvetleaf; [4]) was 50 and the “Plant response rating, Velvetleaf” value (velvetleaf; [5]) was 0. For the same compound, the “Blackgrass plant response rating” value (blackgrass; [3]) was 10, the “Blackgrass plant response rating” value (blackgrass; [4]) was 40 and the “Wheat plant response rating” value (wheat; 500 g ai/ha, visual rating, scale 0 (no effect) to 100 (complete control)) was 10. For the same compound, the “Oat, Wild plant response rating” value (wild oat; [3]) was 10, the “Oat, Wild plant response rating” value (wild oat; [4]) was 30 and the “Rice plant response rating” value (rice; visual rating, 13 to 15 days) was 50. For the same compound, the “Sedge, Umbrella plant response rating” value ([1]; visual rating, 13 to 15 days) was 60 and the “Ducksalad plant response rating” value (ducksalad; visual rating, 13 to 15 days) was 90.

For `CCCCn1nc(C(C)(C)C)cc1C(=O)Nc1cccc(C(=O)NCC)c1` [Compound 41], the “Barnyardgrass plant response rating” value (barnyardgrass; [6]) was 10, the “Plant response rating, Barnyardgrass” value (barnyardgrass; [7]) was 20 and the “Barnyardgrass plant response rating” value (barnyardgrass; [8]) was 80. The “Plant response rating, Surinam Grass” value (Surinam grass; [7]) was 20, the “Surinam Grass plant response rating” value (Surinam grass; [8]) was 60 and the “Plant response rating, Surinam Grass” value (Surinam grass; [5]) was 10. The “Cocklebur plant response rating” value (cocklebur; [6]) was 10, the “Plant response rating, Cocklebur” value (cocklebur; [7]) was 40 and the “Cocklebur plant response rating” value (cocklebur; [8]) was 0. The “Corn plant response rating” value (corn; [8]) was 0, the “Crabgrass, Large plant response rating” value (large crabgrass; [6]) was 20 and the “Plant response rating, Crabgrass, Large” value (large crabgrass; [7]) was 30. For the same compound, the “Crabgrass, Large plant response rating” value (large crabgrass; [8]) was 100, the “Foxtail, Giant plant response rating” value (giant foxtail; [6]) was 10 and the “Plant response rating, Foxtail, Giant” value (giant foxtail; [7]) was 20. For the same compound, the “Foxtail, Giant plant response rating” value (giant foxtail; [8]) was 70, the “Plant response rating, Foxtail, Giant” value (giant foxtail; [5]) was 10 and the “Lambsquarters plant response rating” value (lambsquarters; [6]) was 60. For the same compound, the “Plant response rating, Lambsquarters” value (lambsquarters; [7]) was 70, the “Lambsquarters plant response rating” value (lambsquarters; [8]) was 100 and the “Plant response rating, Lambsquarters” value (lambsquarters; [5]) was 80. For the same compound, the “Plant response rating, Pigweed” value (pigweed; [7]) was 70, the “Pigweed plant response rating” value (pigweed; [8]) was 70 and the “Plant response rating, Pigweed” value (pigweed; [5]) was 70. The “Plant response rating, Velvetleaf” value (velvetleaf; [7]) was 20, the “Velvetleaf plant response rating” value (velvetleaf; [8]) was 10 and the “Plant response rating, Velvetleaf” value (velvetleaf; [5]) was 0. The “Blackgrass plant response rating” value (blackgrass; [6]) was 10, the “Plant response rating, Blackgrass” value (blackgrass; [7]) was 20 and the “Plant response rating, Wheat” value (wheat; [7]) was 10. The “Oat, Wild plant response rating” value (wild oat; [6]) was 10, the “Plant response rating, Oat, Wild” value (wild oat; [7]) was 10 and the “Rice plant response rating” value (rice; visual rating, 13 to 15 days) was 20. For the same compound, the “Sedge, Umbrella plant response rating” value ([1]; visual rating, 13 to 15 days) was 70 and the “Ducksalad plant response rating” value (ducksalad; visual rating, 13 to 15 days) was 60.

In the case of `CCn1nc(C(C)(C)C)cc1C(=O)Nc1cccc(OC(F)(F)F)c1` [Compound 272], the “Barnyardgrass plant response rating (0 to 100 scale)” value (barnyardgrass; [9]) is reported as 10, the “Plant response rating, Barnyardgrass” value (barnyardgrass; [10]) is reported as 90 and the “Barnyardgrass plant response rating” value (barnyardgrass; [3]) is reported as 20. The “Barnyardgrass plant response rating” value (barnyardgrass; [11]) was 80, the “Surinam Grass plant response rating (0 to 100 scale)” value (Surinam grass; [9]) was 10 and the “Plant response rating, Surinam Grass” value (Surinam grass; [10]) was 70. The “Surinam Grass plant response rating” value (Surinam grass; [3]) was 10, the “Surinam Grass plant response rating” value (Surinam grass; [11]) was 60 and the “Cocklebur plant response rating (0 to 100 scale)” value (cocklebur; [9]) was 0. The “Plant response rating, Cocklebur” value (cocklebur; [10]) was 0, the “Cocklebur plant response rating” value (cocklebur; [3]) was 40 and the “Cocklebur plant response rating” value (cocklebur; [11]) was 90. The “Corn plant response rating (0 to 100 scale)” value (corn; [9]) was 0, the “Plant response rating, Corn” value (corn; [10]) was 10 and the “Corn plant response rating” value (corn; [3]) was 30. The “Corn plant response rating” value (corn; [11]) was 40, the “Crabgrass, Large plant response rating (0 to 100 scale)” value (large crabgrass; [9]) was 80 and the “Plant response rating, Crabgrass, Large” value (large crabgrass; [10]) was 100. For the same compound, the “Crabgrass, Large plant response rating” value (large crabgrass; [3]) was 10, the “Crabgrass, Large plant response rating” value (large crabgrass; [11]) was 70 and the “Foxtail, Giant plant response rating (0 to 100 scale)” value (giant foxtail; [9]) was 30. For the same compound, the “Plant response rating, Foxtail, Giant” value (giant foxtail; [10]) was 90, the “Foxtail, Giant plant response rating” value (giant foxtail; [3]) was 10 and the “Foxtail, Giant plant response rating” value (giant foxtail; [11]) was 30. The “Lambsquarters plant response rating (0 to 100 scale)” value (lambsquarters; [9]) was 100, the “Plant response rating, Lambsquarters” value (lambsquarters; [10]) was 100 and the “Lambsquarters plant response rating” value (lambsquarters; [3]) was 100. For the same compound, the “Lambsquarters plant response rating” value (lambsquarters; [11]) was 100, the “Pigweed plant response rating (0 to 100 scale)” value (pigweed; [9]) was 90 and the “Plant response rating, Pigweed” value (pigweed; [10]) was 100. For the same compound, the “Pigweed plant response rating” value (pigweed; [3]) was 100, the “Pigweed plant response rating” value (pigweed; [11]) was 100 and the “Velvetleaf plant response rating (0 to 100 scale)” value (velvetleaf; [9]) was 10. The “Plant response rating, Velvetleaf” value (velvetleaf; [10]) was 50, the “Velvetleaf plant response rating” value (velvetleaf; [3]) was 50 and the “Velvetleaf plant response rating” value (velvetleaf; [11]) was 100. The “Blackgrass plant response rating” value (blackgrass; [3]) was 60, the “Blackgrass plant response rating” value (blackgrass; [11]) was 100 and the “Wheat plant response rating” value (wheat; 125 g ai/ha, visual rating, scale 0 (no effect) to 100 (complete control)) was 20. The “Wheat plant response rating” value (wheat; 500 g ai/ha, scale 0 to 100, 0 is no effect, 100 is complete control) was 30, the “Oat, Wild plant response rating” value (wild oat; [3]) was 60 and the “Oat, Wild plant response rating” value (wild oat; [11]) was 90. For the same compound, the “Rice plant response rating” value (rice) was 40, the “Sedge, Umbrella plant response rating” value [1] was 80 and the “Ducksalad plant response rating” value (ducksalad) was 80.
